Test results reported in patent EP1153612A1, “ANTICANCER AGENT POTENTIATORS” (Tsuruo, Takashi, priority 1999, dated 2000).
Where a SMILES comes first, the peptide text is derived from it. [ ]: non-standard residue; d: D form. The star is where a group is joined. Nva = CCC[C@H](N)C(=O)O; Cbz = O=C(OCc1ccccc1)*; OtBu = CC(C)(C)O*

Assays:
[1] = test system: human colon adenocarcinoma cell HT-29; test: Sensitivity of cells to anticancer drug by colony formation method (M phase-synchronized cells, with or without proteasome inhibiting agent); assay type: cell-based; conditions: for effect of each inhibiting agent on etoposide sensitivity: etoposide 10 µg/ml, MG132, MG115 2.5 µM, E64, ZLLal 25 µM, FIG. 2; for change of cell-killing effect of camptothecin: PSI, MG132 2.5 µM 13 hours, camptothecin 4 hours, FIGS. 15 and 16
Protocol: In the glucose starvation environment found in the solid cancer, the effect of combined use of the proteasome inhibitor in a human colon adenocarcinoma cell HT-29 with the anticancer drug targeting topoisomerase II was tested.
Concerning culture media, for a culture condition in a normal state, RPMI 1640 medium (Nissui Pharmaceutical Co.-made) to which a 5% FBS (fetal bovine serum) was added and for the culture condition in the glucose starvation state symbolically found in the solid cancer, RPMI 1640 medium (Lifetech Oriental-made), lacking glucose, in which the 5% FBS was added were used, respectively. Culture was carried out using a CO2 incubator (Tabai Espec-made) under conditions of 5% CO2/95% air and humidity 100%.
In order to test sensitivity to the anticancer drug, the cell cycle synchronization culture methodwas employed. Nocodazol (Sigma made) was used to synchronize the cell cycle, cells in a logarithmic proliferation phase were treated with 40 ng/ml Nocodazol for 9 hours, and cells accumulated in cell division phase (Mpahse) were collected by gentle pipetting. M phase-synchronized cells collected through these steps were washed with PBS (phosphate buffered saline) followed by inoculation of 1×10^5 cells per well of 12 well-culture plate.
M phase-synchronized cells were cultured under the normal condition and the glucose starvation condition to conduct treatments with the proteasome inhibiting agent and the anticancer drug as follows. For cells under the glucose starvation condition, the culture medium, to which the proteasome inhibiting agent and the protease inhibiting agent not inhibiting proteasome were added as the control group, and the culture medium, to which no inhibiting agent has been added, was used. For cells under the normal condition, the culture medium, to which each inhibiting agent was not added, was used. After inoculation of cells, culture was carried out for 13 hours in each culture medium. […]
Sensitivity of cells to the anticancer drug was measured using the colony formation method. As described above, cells treated with the proteasome inhibiting agent and the anticancer drug were washed with PBS followed by soaking in trypsin (Lifetech Oriental made) solution and removed from a culture dish to suspend in an ordinary culture medium. These cells were inoculated again in 500 to 5000 cells for a 10 cm culture dish and cultured for 10 to 12 days to form a colony. The colony formed was fixed by 10% formaldehyde solution and stainedwith 0.01% crystal violet (Wako Pure Chemicals made) solution. Number of colony was counted and a Cell survival rate was calculated assuming that the number of colonies untreated with the anticancer drug is 1.
For reference, the proteasome inhibiting agent and the protease inhibiting agent not inhibiting proteasome used as described above were as follows. • (1) Proteasome inhibiting agent • . […] MG115 (carbobenzoxy-L-Leucyl-L-Leucyl-L-Norvalinal): final concentration 2.5 µM (Peptide Institute Inc. made) • . MG132 (carbobenzoxy-L-Leucyl-L-Leucyl-Leucinal) : final concentration 2.5 µM (Peptide Institute Inc. made) • . Lactacystin, final concentration 10 µM (Kindly supplied from The Kitasato Institute made) • (2) Protease inhibiting agent not inhibiting proteasome • . E64, final concentration 25 µM (Peptide Institute Inc. made) • . ZLLal (carbobenzoxy-L-Leucyl-L-Leucinal): final concentration 25 µM (Peptide Institute Inc. made)
The cell culture condition for both M phase-synchronized culture method and culture under the glucose starvation condition was as described in Example 1. M phase-synchronized cells were cultured in the culture medium, to which lactacystin of the final concentration 10 µM was added, or the culture medium, to which this was not added, as the proteasome inhibiting agent under the ordinary condition and the glucose starvation condition, respectively, for 13 hours. […]

topoisomerase IIα = test: Amount of expression of topoisomerase IIα in whole cell extract by western blotting; assay type: cell-based, human
Text: Topoisomerase II inhibiting anticancer drug stabilizes a complex (cleavable complex) consisting of the DNA and topoisomerase IIα occurring in a catalytic reaction process of topoisomerase IIα to cause DNA damage. Therefore, cell-killing effect of the topoisomerase II-inhibiting anticancer drug depends on the amount of intracellular expression of topoisomerase IIα essential for formation of the cleavable complex. Then, the amount of expression of topoisomerase IIα in the cultured cancer cell under the glucose starvation and hypoxia environment that are found in the solid cancer and the effect of the proteasome inhibiting agent to the amount of expression were examined.
The culture condition of cells is same as that described in Example 1 including the M phase synchronous culture method and culture under the glucose starvation condition. Culture under hypoxia condition, that is found in the solid cancer, similar to glucose starvation was carried out using the culture medium (that prepared by adding 5% FBS to RPMI1640 culture medium) under the ordinary condition in a Gaspack 100 anaerobic system (Becton Dickinson made). Culture under the glucose starvation condition and hypoxia condition was carried out for 14 hours .
With the purpose to prepare a whole cell extract solution, cells culture under the above described condition were washed with an ice-cooled PBS twice and then, cells were removed from the culture dish by using a cell scraper (Sumitomo Bakelite made) for collection. Cells collected were precipitated by centrifugation and then, dissolved in an SDS sample buffer to collect as the extract solution from all cells. For reference, the composition of the SDS sample buffer was 10% v/v, glycerol, 5% 2-mercaptoethanol, 2% SDS (sodium lauryl sulfate), and 62.5 mM tris-hydrochloric acid (pH 6.8).
The amount of topoisomerase IIα in the extract solution from all cells was measured by the western blotting method. The extract solution from all cells containing a total protein quantity of 30 µg was put on an SDS polyacrylamide gel (4-20 Multigel: Daiichi Pure Chemicals K.K. made) and subjected to electrophoresis in an electrophoresis buffer (25 mM tris, 192 mM glycine, and 0.1% SDS) in a 40 mA constant current for 1 hour. Subsequently, blotting was carried out in 4°C blotting buffer (25 mM tris, 192 mM glycine, and 20% methanol) in a 50 V constant voltage for 12 hours to transfer a protein separated in the SDS polyacrylamide gel to a nitrocellulose membrane. This nitrocellulose membrane was soaked in a blocking buffer (0.1% Tween 20, 4% skim milk-added PBS) for 1 hour to carry out blocking. The nitrocellulose membrane blocked was soaked in a solution, that was prepared by adding anti-topoisomerase IIα antibody (Cambridge Research Biochemicals Corp. made) of the final concentration 1 µg/ml as the primary antibody to the blocking buffer solution, for 1 hour. The nitrocellulose membrane was washed with the blocking buffer three times (5 minutes once), and then, soaked in the solution, in which a 1/1000 volume of an antimouse antibody (Amersham Pharmacia Biotech made) labeled with horse radish peroxidase as a secondary antibody had been added to the blocking buffer, for 1 hour. The nitrocellulose membrane was washed with the blocking buffer three times (5 minutes once), and then, washed with the PBS, to which 0.1% Tween 20 was added, three times (5 minutes once). The nitrocellulose membrane after completion of antibody reaction and washing was treated with the ECL reagent (Amersham Pharmacia Biotech made) after a handling manual and a topoisomerase IIα-specific signal was detected on an X-OMAT™AR film (Kodakmade). For reference, steps after blotting was carried out in a room temperature. […]
The cell culture condition for both M phase-synchronized culture method and culture under the glucose starvation condition was as described in Example 1. […]

[2] = glucose starvation condition 14 hours, PSI, MG115, MG132 5 µM, lactacystin 10 µM, E64, ZLLal 50 µM, FIG. 5(a)-(c)
[3] = glucose starvation condition, final concentration of 2.5 µM, not presented as data

CC(C)C[C@H](NC(=O)[C@H]1O[C@@H]1C(=O)O)C(=O)NCCCCNC(=N)N [E64]
effect of each inhibiting agent on etoposide sensitivity ([1]; glucose starvation condition): seldom change sensitivity to etoposide | expressed amount of topoisomerase IIα (topoisomerase IIα; [2]): the expressed amount of topoisomerase IIα very dropped

CC(C)C[C@@H](C=O)NC(=O)[C@H](CC(C)C)NC(=O)OCc1ccccc1 [ZLLal, carbobenzoxy-L-Leucyl-L-Leucinal]
effect of each inhibiting agent on etoposide sensitivity ([1]; glucose starvation condition): seldom change sensitivity to etoposide | expressed amount of topoisomerase IIα (topoisomerase IIα; [2]): the expressed amount of topoisomerase IIα very dropped

CC(C)C[C@@H](C=O)NC(=O)[C@H](CC(C)C)NC(=O)[C@H](CC(C)C)NC(=O)OCc1ccccc1 [MG132, carbobenzoxy-L-Leucyl-L-Leucyl-Leucinal] (Cbz-Leu-Leu-Leu-aldehyde)
change of cell-killing effect of camptothecin ([1]; glucose starvation condition): also enhance the effect of camptothecin | effect of each inhibiting agent on etoposide sensitivity ([1]; glucose starvation condition): enhance sensitivity of cells to etoposide | expressed amount of topoisomerase IIα (topoisomerase IIα; [2]): the expressed amount of topoisomerase IIα does not drop | expressed amount of topoisomerase IIα (topoisomerase IIα; [3]): inhibited similarly decrease in expression of topoisomerase IIα

CCC[C@@H](C=O)NC(=O)[C@H](CC(C)C)NC(=O)[C@H](CC(C)C)NC(=O)OCc1ccccc1 [MG115, carbobenzoxy-L-Leucyl-L-Leucyl-L-Norvalinal] (Cbz-Leu-Leu-[Nva]-aldehyde)
effect of each inhibiting agent on etoposide sensitivity ([1]; glucose starvation condition): enhance sensitivity of cells to etoposide | expressed amount of topoisomerase IIα (topoisomerase IIα; [2]): the expressed amount of topoisomerase IIα does not drop | expressed amount of topoisomerase IIα (topoisomerase IIα; [3]): inhibited similarly decrease in expression of topoisomerase IIα

N.N.[Cl][Pt][Cl] [cisplatin]
sensitivity of cancer cells to cisplatin ([1]; under the stress environment (glucose starvation), cisplatin 4 hours, FIG. 18): high sensitivity

CC[C@H](C)[C@H](NC(=O)OCc1ccccc1)C(=O)N[C@@H](CCC(=O)OC(C)(C)C)C(=O)N[C@@H](C)C(=O)N[C@H](C=O)CC(C)C [PSI, carbobenzoxy-L-Isoleucyl-γ-t-Butyl-L-Glutamyl-L-Alany 1-L-Leucinal] (Cbz-IE(OtBu)AL-aldehyde)
sensitivity to etoposide of cancer cells, effect of inhibiting agent ([1]; glucose starvation condition, PSI 2.5 µM, 13 hours, then etoposide 1 hour, FIG. 1): cells show sensitivity to etoposide even in the glucose starvation condition | change of cell-killing effect of camptothecin ([1]; glucose starvation condition): also enhance the effect of camptothecin | expressed amount of topoisomerase IIα (topoisomerase IIα; [2]): the expressed amount of topoisomerase IIα does not drop | expressed amount of topoisomerase IIα (topoisomerase IIα; [3]): inhibited similarly decrease in expression of topoisomerase IIα

CC(=O)NCCSC(=O)[C@]1([C@@H](O)C(C)C)NC(=O)[C@H](C)[C@@H]1O [decarboxy lactacystin]
change of cell-killing effect of etoposide ([1]; decarboxy lactacystin 5 µM 13 hours, etoposide 4 hours, ordinary and glucose starvation condition, FIG. 19 top): enhances the cell-killing effect of etoposide | change of cell-killing effect of SN38 ([1]; ordinary condition, decarboxy lactacystin 5 µM 13 hours, SN38 4 hours, FIG. 20): enhances the cell-killing effect of SN38 | amount of expression of topoisomerase IIα (topoisomerase IIα; glucose starvation condition 13 hours, decarboxy lactacystin 0.5, 1, 2.5, and 5 µM, FIG. 19 bottom): inhibits lowering of expression of topoisomerase IIα by glucose starvation
